Laboratory results taken from patent US6610689B2, “HIV protease inhibitors based on amino acid derivatives” (priority 2001, dated 2003).
Read-outs that look alike come from different tables or passages of the source.

Biological target: T1, HIV protease (Human immunodeficiency virus type 1 group M subtype B, UniProt P04585)
T1 construct: A third viral enzyme known as protease then cleaves the polyproteins
Experiment: Enzymatic Assay for Determining the Inhibition Constant (Ki) of Synthetic Compounds Targeting the HIV Protease (fluorometric FRET assay)
Type: biochemical
Outline: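 Ki obtained via the Henderson equation from enzyme velocities with and without compound, accounting for substrate concentration and Km. Activity followed by FRET fluorescence from cleavage of a substrate flanked by EDANS donor and DABCYL acceptor.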

[1] = Table 1, compounds of formula I, read-out: Ki (anti-protease activity)

Compound	Ki	also measured
Cc1ccc(S(=O)(=O)N(CC(C)C)[C@H](CO)CCCCNC(=O)[C@H](Cc2c(F)c(F)c(F)c(F)c2F)NC(=O)OC(C)(C)C)cc1 [Example 143, (2S,2′S) 2-N-Isobutyl-2-N-(4-methylbenzenesulfonyl)-6-N-(N′α-tert-butoxycarbonyl-S-pentafluorophenylalanyl)-2,6-diaminohexanol]	> 300 nM	–
CC(C)CN([C@@H](CCCCNC(=O)[C@H](Cc1ccccc1)NS(=O)(=O)c1ccccc1)C(=O)O)S(=O)(=O)c1ccc(N)cc1 [Example 44, Nα-(4-Aminobenzenesulfonyl)-Nα-isobutyl-Nε-(N′α-benzenesulfonyl-L-phenylalanyl)-L-lysine]	3.6 nM	–
Cc1ccc(S(=O)(=O)N(CC(C)C)[C@H](CO)CCCCNC(=O)[C@H](Cc2c[nH]c3ccccc23)NS(=O)(=O)c2cccs2)cc1 [Example 129, (2S,2′S) 2-N-Isobutyl-2-N-(4-methylbenzenesulfonyl)-6-N-[N′α-(2-thiophenesulfonyl)-S-tryptophanyl]-2,6-diaminohexanol]	1 nM	–
Cc1ccc(S(=O)(=O)N(CC(C)C)[C@@H](CCCCNC(=O)[C@H](CC(N)=O)NS(=O)(=O)c2ccccc2)C(=O)O)cc1 [Example 25]	5.3 nM	–
Cc1ccc(S(=O)(=O)N(CC(C)C)[C@@H](CCCCNC(=O)[C@H](CC(C)C)NS(=O)(=O)c2ccc([N+](=O)[O-])cc2)C(=O)O)cc1 [Example 16, Nα-Isobutyl-Nα-(4-methylbenzenesulfonyl)-Nε-[N′α-(4-nitrobenzenesulfonyl)-L-leucyl]-L-lysine]	34 nM	–
COc1ccc(CN(CC(=O)NCCCC[C@@H](C(=O)O)N(CC(C)C)S(=O)(=O)c2ccc(C)cc2)c2ccccc2)cc1 [Example 174, Nα-Isobutyl-Nα-(4-methylbenzenesulfonyl)-Nε-[N′α-(4-methoxybenzyl)-N′α-phenylglycyl]-L-lysine]	1.4 nM	–
Nα-Isobutyl-Nα-(4-methylbenzenesulfonyl)-Nε-(N′α-benzylglycyl)-L-lysine [Example 109]	–	Ki [1]: > 300 nM
Cc1ccc(S(=O)(=O)N(CC(C)C)[C@H](CO)CCCCNC(=O)[C@H](Cc2ccccc2)NS(=O)(=O)c2cccs2)cc1 [Example 122, (2S,2′S) 2-N-Isobutyl-2-N-(4-methylbenzenesulfonyl)-6-N-[N′α-(2-thiophenesulfonyl)-S-phenylalanyl]-2,6-diaminohexanol]	–	Ki [1]: 8.2 nM
Cc1ccc(S(=O)(=O)N(CC(C)C)[C@@H](CCCCNC(=O)CNc2cnc3ccccc3c2)C(=O)O)cc1 [Example 113, Nα-Isobutyl-Nα-(4-methylbenzenesulfonyl)-Nε-[N′α-(3-quinolyl)glycyl]-L-lysine]	12 nM	–
Cc1ccc(S(=O)(=O)N(CC(=O)NCCCC[C@@H](C(=O)O)N(CC(C)C)S(=O)(=O)c2ccc(C)cc2)CC(C)C)cc1 [Example 55, Nα-Isobutyl-Nα-(4-methylbenzenesulfonyl)-Nε-[N′α-isobutyl-N′α-(4-methylbenzenesulfonyl)-glycyl]-L-lysine]	–	Ki (Anti-protease activity of Ne-amino acid substituted L-lysine derivatives and analogs of formula I, read-out: Ki): 14 nM
Cc1ccc(S(=O)(=O)N(CC(C)C)[C@@H](CCCCNC(=O)[C@H](Cc2c[nH]c3ccccc23)NS(=O)(=O)c2ccccc2)C(=O)O)cc1 [Example 4, Nα-Isobutyl-Nα-(4-methylbenzenesulfonyl)-Nε-(N′α-benzenesulfonyl-L-tryptophanyl)-L-lysine]	1 nM	–
Cc1ccc(S(=O)(=O)NC(Cc2c[nH]c3ccccc23)C(=NC#N)NCCCCC(C(=O)O)N(CC(C)C)S(=O)(=O)c2ccc(C)cc2)cc1 [Example 103, Nα-Isobutyl-Nα-(4-methylbenzenesulfonyl)-Nε-[N′α-(4-methylbenzenesulfonyl)-L-tryptophanyl-N-cyanoamidine]-L-lysine]	1.1 nM	–
Cc1ccc(S(=O)(=O)N(CC(C)C)[C@H](CO)CCCCNC(=O)[C@H](Cc2ccccc2)NC(=O)N2CCOCC2)cc1 [Example 120, (2S,2′S) 2-N-Isobutyl-2-N-(4-methylbenzenesulfonyl)-6-N-[N′α-(4-morpholinecarbonyl)-S-phenylalanyl]-2,6-diaminohexanol]	2.4 nM	–
Cc1ccc(S(=O)(=O)N(CC(C)C)[C@H](CO)CCCCNC(=O)CN(Cc2ccccc2)c2ccccc2)cc1 [Example 156, (2S) 2-N-Isobutyl-2-N-(4-methylbenzenesulfonyl)-6-N-(N′α-benzyl-N′α-phenylglycyl)-2,6-diaminohexanol]	7.6 nM	–
Cc1ccc(S(=O)(=O)N(CC(C)C)[C@@H](CCCCNC(=O)[C@@H](N)Cc2c[nH]c3ccccc23)C(=O)O)cc1 [Example 93, Nα-Isobutyl-Nα-(4-methylbenzenesulfonyl)-Nε-(L-tryptophanyl)-L-lysine]	2.1 nM	–
COC(=O)[C@H](CCCCNC(=O)[C@H](Cc1ccccc1)NS(=O)(=O)c1ccc(C)cc1)N(CC(C)C)S(=O)(=O)c1ccc(C)cc1 [Example 68, Nα-Isobutyl-Nα-(4-methylbenzenesulfonyl)-Nε-[N′α-(4-methylbenzenesulfonyl)-L-phenylalanyl]-L-lysine Methyl Ester]	> 300 nM	–

Compound	Ki	also measured
CSCC[C@H](N)C(=O)NCCCC[C@@H](C(=O)O)N(CC(C)C)S(=O)(=O)c1ccc(C)cc1 [Example 89, Nα-Isobutyl-Nα-(4-methylbenzenesulfonyl)-Nε-(L-methionyl)-L-lysine]	33 nM	–
COC(=O)[C@H](CCCCNC(=S)[C@H](Cc1ccccc1)NC(=S)c1ccccc1)N(CC(C)C)S(=O)(=O)c1ccc(C)cc1 [Example 76, Nα-Isobutyl-Nα-(4-methylbenzenesulfonyl)-Nε-(N′α-thiobenzoyl-L-thiophenylalanyl)-L-lysine Methyl Ester]	> 300 nM	–
Cc1ccc(S(=O)(=O)N(CC(C)C)[C@H](CO)CCCCNC(=O)[C@H](Cc2c[nH]c3ccccc23)NC(=O)C(C)(C)C)cc1 [Example 117, (2S,2′S) 2-N-Isobutyl-2-N-(4-methylbenzenesulfonyl)-6-N-(N′α-pivaloyl-S-tryptophanyl)-2,6-diaminohexanol]	0.428 nM	–
Cc1ccc(S(=O)(=O)N[C@@H](CCC(N)=O)C(=O)NCCCC[C@@H](C(=O)O)N(CC(C)C)S(=O)(=O)c2ccc(C)cc2)cc1 [Example 34, Nα-Isobutyl-Nα-(4-methylbenzenesulfonyl)-Nε-[N′α-(4-methylbenzenesulfonyl)-L-glutaminyl]-L-lysine]	95 nM	–
CC(=O)Nc1ccc(S(=O)(=O)N[C@@H](Cc2ccccc2)C(=O)NCCCC[C@@H](C(=O)O)N(CC(C)C)S(=O)(=O)c2ccc([N+](=O)[O-])cc2)cc1 [Example 28, Nα-Isobutyl-Nα-(4-nitrobenzenesulfonyl)-Nε-[N′α-(4-acetamidobenzenesulfonyl)-L-phenylalanyl]-L-lysine]	9.3 nM	–
CC(C)CN([C@H](CO)CCCCNC(=O)[C@H](Cc1c[nH]c2ccccc12)NC(=O)C(C)C)S(=O)(=O)c1ccc(N)cc1 [Example 184, (2S,2′S) 2-N-(4-Aminobenzenesulfonyl)-2-N-isobutyl-6-N-(N′α-isobutyryl-S-tryptophanyl)-2,6-diaminohexanol]	1.6 nM	–
Cc1ccc(S(=O)(=O)N(CC(C)C)[C@@H](CCCCNC(=O)[C@H](Cc2c[nH]c3ccccc23)NS(=O)(=O)c2ccccc2)C(N)=O)cc1 [Example 189, Nα-Isobutyl-Nα-(4-methylbenzenesulfonyl)-Nε-(N′α-benzenesulfonyl-L-tryptophanyl)-L-lysine Amide]	1.9 nM	–
COC(=O)[C@H](CCCCNC(=O)[C@H](Cc1ccccc1)NS(=O)(=O)c1cccs1)N(CC(C)C)S(=O)(=O)c1ccc(C)cc1 [Example 57, Nα-Isobutyl-Nα-(4-methylbenzenesulfonyl)-Nε-[N′α-(2-thiophenesulfonyl)-L-phenylalanyl]-L-lysine Methyl Ester]	> 300 nM	–
Cc1ccc(S(=O)(=O)N(CC(C)C)[C@@H](CCCCNC(=O)[C@H](Cc2ccccc2)NS(=O)(=O)c2ccc(C(F)(F)F)cc2)C(=O)O)cc1 [Example 23, Nα-Isobutyl-Nα-(4-methylbenzenesulfonyl)-Nε-[N′α-(4-trifluoromethylbenzenesulfonyl)-L-phenylalanyl]-L-lysine]	12 nM	–
COc1ccc(S(=O)(=O)N(CC(C)C)[C@H](CO)CCCCNC(=O)[C@H](Cc2c[nH]c3ccccc23)NC(=O)C(C)(C)C)cc1 [Example 148, (2S,2′S) 2-N-Isobutyl-2-N-(4-methoxybenzenesulfonyl)-6-N-(N′α-pivaloyl-S-tryptophanyl)-2,6-diaminohexanol]	1.9 nM	–
COC(=O)N[C@@H](Cc1c[nH]c2ccccc12)C(=O)NCCCC[C@@H](CO)N(CC(C)C)S(=O)(=O)c1ccc(N)cc1 [Example 178, (2S,2′S) 2-N-(4-Aminobenzenesulfonyl)-2-N-isobutyl-6-N-(N′α-methoxycarbonyl-S-tryptophanyl)-2,6-diaminohexanol]	2 nM	–
Cc1ccc(S(=O)(=O)N[C@H](Cc2ccccc2)C(=O)NCCCC[C@@H](C(=O)O)N(CC(C)C)S(=O)(=O)c2ccc(C)cc2)cc1 [Example 7, Nα-Isobutyl-Nα-(4-methylbenzenesulfonyl)-Nε-[N′α-(4-methylbenzenesulfonyl)-D-phenylalanyl]-L-lysine]	120 nM	–
CN[C@@H](Cc1ccccc1)C(=O)NCCCC[C@@H](C(=O)O)N(CC(C)C)S(=O)(=O)c1ccc(C)cc1 [Example 88, Nα-Isobutyl-Nα-(4-methylbenzenesulfonyl)-Nε-(N′α-methyl-L-phenylalanyl)-L-lysine]	2.1 nM	–
Cc1ccc(S(=O)(=O)N[C@@H](Cc2c[nH]c3ccccc23)C(=O)NCCCC[C@@H](CO)N(CC(C)C)S(=O)(=O)c2ccc(C)cc2)cc1 [Example 97, (2S,2′S) 2-N-Isobutyl-2-N-(4-methylbenzenesulfonyl)-6-N-[N′α-(4-methylbenzenesulfonyl)-S-tryptophanyl]-2,6-diaminohexanol]	3.6 nM	–
CC(C)CN([C@H](CO)CCCCNC(=O)[C@H](Cc1c[nH]c2ccccc12)NC(=O)CC(C)(C)C)S(=O)(=O)c1ccc(N)cc1 [Example 185, (2S,2′S) 2-N-(4-Aminobenzenesulfonyl)-2-N-isobutyl-6-N-(N′α-tert-butylacetyl-S-tryptophanyl)-2,6-diaminohexanol]	3.1 nM	–
